Values of other authors in patent US12447129B2, “Solid dosage form production” (University of Lancashire, priority 2014, dated 2025).

Tests used:
[1] = plasticiser alone; input to the calculation
[2] = at 25° C.

Tg (K) plasticiser [1] [K]	water sol. [2] [mg/L]	Compound
203.55		CCOC(=O)CC(O)(CC(=O)OCC)C(=O)OCC [TEC]
	7360	Cn1c(=O)c2[nH]cnc2n(C)c1=O [theophylline]
193.7		CC(=O)OCC(COC(C)=O)OC(C)=O [Triacitin]
